Target: T1, BRD9-GFP (Homo sapiens, UniProt Q9H8M2)
T1 construct: CHYSEL (2A cis-acting hydrolase element) remnant after GFP; mCherry is split off as a separate protein (C); expressed in transfected cells; host or cells: HEK293A cells (Invitrogen R70507), lentiviral transduction with pLenti6-BRD9-GFP-CHYSEL-mCherry, blasticidin selection
T1 sequence (Q9H8M2 1-597): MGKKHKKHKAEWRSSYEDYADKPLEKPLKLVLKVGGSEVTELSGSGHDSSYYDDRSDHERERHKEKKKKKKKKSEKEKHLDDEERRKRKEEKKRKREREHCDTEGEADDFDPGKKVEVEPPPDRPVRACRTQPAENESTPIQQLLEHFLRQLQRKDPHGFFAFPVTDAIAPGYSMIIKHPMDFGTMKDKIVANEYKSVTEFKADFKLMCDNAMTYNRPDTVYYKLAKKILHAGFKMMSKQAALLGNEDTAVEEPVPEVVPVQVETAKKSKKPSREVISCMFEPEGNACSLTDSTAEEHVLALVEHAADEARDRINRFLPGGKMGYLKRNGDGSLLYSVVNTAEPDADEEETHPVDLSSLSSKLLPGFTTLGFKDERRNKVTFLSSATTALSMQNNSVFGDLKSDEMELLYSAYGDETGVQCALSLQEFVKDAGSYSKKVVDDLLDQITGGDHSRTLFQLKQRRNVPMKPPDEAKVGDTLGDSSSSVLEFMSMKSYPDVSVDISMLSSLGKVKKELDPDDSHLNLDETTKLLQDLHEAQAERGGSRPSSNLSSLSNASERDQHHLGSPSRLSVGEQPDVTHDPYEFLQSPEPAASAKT
Assay: BRD9-GFP protein abundance flow cytometry assay in HEK293A cells
Format: cell-based
Settings: HEK293A-BRD9-GFP-CHYSEL-mCherry cells; for BRD9 Deg Amax %: 24 h, % protein remaining at the concentration at which maximum degradation is seen; for DC50: 24 h at 37° C., 10-point 1:3 dilution, concentration at which 50% maximal degradation was observed
Summary of the method: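 HEK293A cells stably express bicistronic BRD9-GFP-CHYSEL-mCherry and received 24 h treatment at 37° C with a 10-point, 3-fold dilution series from […], in 0.1% DMSO and duplicate. Median GFP/mCherry ratio of 5,000 single cells by flow cytometry, normalized to mCherry-only cells (0%) and DMSO (100%), gave DC50 and Amax (% protein remaining).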

Row | Compound | BRD9 Deg Amax % [%] | DC50 [nM]
1 | CCCCn1cc(-c2ccc(O[C@H]3CCN(CC4CCN(C(=O)c5ccc(OC)c(N6CCC(=O)NC6=O)c5)CC4)C[C@@H]3F)c(OC)c2)c2ccncc2c1=O [Compound E32, 1-(5-(4-(((3S,4S)-4-(4-(2-Butyl-1-oxo-1,2-dihydro-2,7-naphthyridin-4-yl)-2-methoxyphenoxy)-3-fluoropiperidin-1-yl)methyl)piperidine-1-carbonyl)-2-methoxyphenyl)dihydropyrimidine-2,4(1H,3H)-dione] | 17.58 | 1
2 | CCCCn1cc(-c2cc(F)c(CN3CCC(OC4CCN(C(=O)c5ccc(OC)c(N6CCC(=O)NC6=O)c5)CC4)CC3)c(F)c2)c2ccncc2c1=O [Compound E33, 1-(5-(4-((1-(4-(2-butyl-1-oxo-1,2-dihydro-2,7-naphthyridin-4-yl)-2,6-difluorobenzyl)piperi-din-4-yl)oxy)piperi-dine-1-carbonyl)-2-methoxyphenyl)di-hydro-pyrimidine-2,4(1H,3H)-dione] | 14.29 | 5
3 | CCCCn1cc(-c2ccc(OC3CCN(CC4CCN(C(=O)c5ccc(OC)c(N6CCC(=O)NC6=O)c5)CC4)CC3)c(F)c2)c2ccncc2c1=O [Compound E34, 1-(5-(4-((4-(4-(2-butyl-1-oxo-1,2-dihydro-2,7-naphthyridin-4-yl)-2-fluorophenoxy)piperidin-1-yl)methyl)piperidine-1-carbonyl)-2-methoxyphenyl)dihydropyrimidine-2,4(1H,3H)-dione] | 13.08 | 2
4 | CCCCn1cc(-c2ccc(O[C@H]3CC[C@@H](OC4CCN(CCn5cccc(CN6CCC(=O)NC6=O)c5=O)CC4)CC3)cc2)c2ccncc2c1=O [Compound E35, 1-((1-(2-(4-(((cis)-4-(4-(2-butyl-1-oxo-1,2-dihydro-2,7-naphthyridin-4-yl)phenoxy)cyclohexyl)oxy)piperidin-1-yl)ethyl)-2-oxo-1,2-dihydropyridin-3-yl)methyl)dihydropyrimidine-2,4(1H,3H)-dione] | 15.90 | 6
5 | CCCCn1cc(-c2cc(OC)c(CN3CC[C@@H](OC4CCN(C(=O)c5ccc(OC)c(N6CCC(=O)NC6=O)c5)CC4)[C@H](F)C3)cc2OC)c2ccncc2c1=O [Compound E36, 1-(5-(4-(((3R,4R)-1-(4-(2-butyl-1-oxo-1,2-dihydro-2,7-naphthyridin-4-yl)-2,5-dimethoxybenzyl)-3-fluoropiperidin-4-yl)oxy)piperidine-1-carbonyl)-2-methoxyphenyl)dihydropyrimidine-2,4(1H,3H)-dione] | 12.80 | 6
6 | Cn1cc(-c2ccc(CN3CCC(OC4CCN(CCn5cccc(CN6CCC(=O)NC6=O)c5=O)CC4)CC3)cc2)c2ccncc2c1=O [Compound E37, 1-((1-(2-(4-((1-(4-(2-methyl-1-oxo-1,2-dihydro-2,7-naphthyridin-4-yl)benzyl)piperidin-4-yl)oxy)piperidin-1-yl)ethyl)-2-oxo-1,2-dihydropyridin-3-yl)methyl)dihydropyrimidine-2,4(1H,3H)-dione] | 13.77 | 9
7 | COc1cc(-c2cn(C)c(=O)c3cnccc23)c(OC)cc1CN1CC[C@@H](OC2CCN(CCn3cccc(CN4CCC(=O)NC4=O)c3=O)CC2)[C@H](F)C1 [Compound E39, 1-((1-(2-(4-(((3R,4R)-1-(2,5-Dimethoxy-4-(2-methyl-1-oxo-1,2-dihydro-2,7-naphthyridin-4-yl)benzyl)-3-fluoropiperidin-4-yl)oxy)piperidin-1-yl)ethyl)-2-oxo-1,2-dihydropyridin-3-yl)methyl)dihydropyrimidine-2,4(1H,3H)-dione] | 14.60 | 4
8 | CCCCCCn1cc(-c2cc(OC)c(CN3CCC(OC4CCN(C(=O)c5ccc(OC)c(N6CCC(=O)NC6=O)c5)CC4)CC3)c(OC)c2)c2ccncc2c1=O [Compound E40, 1-(5-(4-((1-(4-(2-Hexyl-1-oxo-1,2-dihydro-2,7-naphthyridin-4-yl)-2,6-dimethoxybenzyl)piperidin-4-yl)oxy)piperidine-1-carbonyl)-2-methoxyphenyl)dihydropyrimidine-2,4(1H,3H)-dione] | 10.51 | 29
9 | CCCCn1cc(-c2ccc(OC3CCN(CC4CCN(C(=O)c5ccc(OC)c(N6CCC(=O)NC6=O)c5)CC4)CC3)cc2)c2ccncc2c1=O [Compound E42, 1-(5-(4-((4-(4-(2-butyl-1-oxo-1,2-dihydro-2,7-naphthyridin-4-yl)phenoxy)piperidin-1-yl)methyl)piperidine-1-carbonyl)-2-methoxyphenyl)dihydropyrimidine-2,4(1H,3H)-dione] | 17.34 | 4
10 | CCCCn1cc(-c2ccc(OC3CCN(CC4CCN(C(=O)c5ccc(OC)c(N6CCC(=O)NC6=O)c5)CC4)CC3)c(Cl)c2)c2ccncc2c1=O [Compound E43, 1-(5-(4-((4-(4-(2-butyl-1-oxo-1,2-dihydro-2,7-naphthyridin-4-yl)-2-chlorophenoxy)piperidin-1-yl)methyl)piperidine-1-carbonyl)-2-methoxyphenyl)dihydropyrimidine-2,4(1H,3H)-dione] | 17.45 | 3
11 | CCCCn1cc(-c2cc(F)c(CN3CCC(OC4CCN(C(=O)COc5ccc(C)c(N6CCC(=O)NC6=O)c5)CC4)CC3)c(F)c2)c2ccncc2c1=O [Compound E45, 1-(5-(2-(4-((1-(4-(2-butyl-1-oxo-1,2-dihydro-2,7-naphthyridin-4-yl)-2,6-difluorobenzyl)piperidin-4-yl)oxy)piperidin-1-yl)-2-oxoethoxy)-2-methylphenyl)dihydropyrimidine-2,4(1H,3H)-dione] | 15.28 | 7
12 | COc1cc(-c2cn(C)c(=O)c3cnccc23)c(OC)cc1CN1CCC(OC2CCN(C(=O)COc3ccc(N4CCC(=O)NC4=O)cc3)CC2)CC1 [Compound E46, 1-(4-(2-(4-((1-(2,5-dimethoxy-4-(2-methyl-1-oxo-1,2-dihydro-2,7-naphthyridin-4-yl)benzyl)piperidin-4-yl)oxy)piperidin-1-yl)-2-oxoethoxy)phenyl)dihydropyrimidine-2,4(1H,3H)-dione] | 15.69 | 33
13 | CCCCn1cc(-c2cc(OC)c(CCN3CC[C@@H](OC4CCN(C(=O)c5ccc(Cl)c(N6CCC(=O)NC6=O)c5)CC4)[C@H](F)C3)cc2OC)c2ccncc2c1=O [Compound E47, 1-(5-(4-(((3R,4R)-1-(4-(2-butyl-1-oxo-1,2-dihydro-2,7-naphthyridin-4-yl)-2,5-dimethoxyphenethyl)-3-fluoropiperidin-4-yl)oxy)piperidine-1-carbonyl)-2-chlorophenyl)dihydro-pyrimidine-2,4(1H,3H)-dione] | 32.89 | 49
14 | CCCn1cc(-c2cc(OC)c(CCN3CCN(CC4CCN(C(=O)c5ccc(Cl)c(N6CCC(=O)NC6=O)c5)CC4)CC3)c(OC)c2)c(C)c(C)c1=O [Compound E48, 1-(2-chloro-5-(4-((4-(4-(4,5-dimethyl-6-oxo-1-propyl-1,6-dihydropyridin-3-yl)-2,6-dimethoxyphenethyl)piperazin-1-yl)methyl)piperidine-1-carbonyl)phenyl)dihydropyrimidine-2,4(1H,3H)-dione] | 15.41 | 2
15 | CCCCn1cc(-c2cc(F)c(OC3CCN(CC4CCN(C(=O)c5ccc(OC)c(N6CCC(=O)NC6=O)c5)CC4)CC3)c(F)c2)c2ccncc2c1=O [Compound E49, 1-(5-(4-((4-(4-(2-butyl-1-oxo-1,2-dihydro-2,7-naphthyridin-4-yl)-2,6-difluorophenoxy)piperidin-1-yl)methyl)piperidine-1-carbonyl)-2-methoxyphenyl)dihydropyrimidine-2,4(1H,3H)-dione] | 19.41 | 7
16 | CCCCn1cc(-c2cc(OC)c(CCN3CCC(OC4CCN(C(=O)c5ccc(OC)c(N6CCC(=O)NC6=O)c5)CC4)CC3)c(OC)c2)c2ccncc2c1=O [Compound E50, 1-(5-(4-((1-(4-(2-butyl-1-oxo-1,2-dihydro-2,7-naphthyridin-4-yl)-2,6-dimethoxyphenethyl)-piperidin-4-yl)oxy)piperidine-1-carbonyl)-2-meth-oxyphenyl)dihydro-pyrimidine-2,4(1H,3H)-dione] | 13.47 | 8
17 | CCCCn1cc(-c2cc(F)c(CN3CCC(OC4CCN(C(=O)c5ccc(OC)c(N6CCC(=O)NC6=O)c5)CC4)CC3)c(OC)c2)c2ccncc2c1=O [Compound E51, 1-(5-(4-((1-(4-(2-butyl-1-oxo-1,2-dihydro-2,7-naphthyridin-4-yl)-2-fluoro-6-methoxybenzyl)-piperidin-4-yl)oxy)piperidine-1-carbonyl)-2-meth-oxyphenyl)dihydro-pyrimidine-2,4(1H,3H)-dione] | 11.66 | 7

Source: patent US20220315578A1, “BRD9 BIFUNCTIONAL DEGRADERS AND THEIR METHODS OF USE” (NOVARTIS AG, priority 2019, published 2022)
